# Experimental data reported in patent US20220240499A1, “COMPOSITION AND METHOD FOR CRYOPRESERVATION OF CELLS” (Regents of the University of Minnesota, priority 2019, published 2022).
# Where a SMILES comes first, the peptide text is derived from it. The star is where a group is joined. Cbz = O=C(OCc1ccccc1)*; CH2F = FC*
# Experiments:
# iPS cell aggregates [1] = test: Screening of osmolytes for wash-free cryopreservation (cytotoxicity limits by cell reattachment); settings: 300 mM, 30 min, in HBSS at room temperature; observed 24 hours later
# Description: Different types of sugars (disaccharides) and sugar alcohols (all BioUltra or PharmaGrade, Sigma-Aldrich) were individually tested for cytotoxicity limits based on its effect on cell reattachment. In consideration for pre-freeze cell processing, each molecule of a given concentration among 300 mM, 150 mM, and 75 mM was used to incubate cell aggregates suspended in HBSS at room temperature for 30 minutes or 1 hour. Then, in consideration of wash-free thawing at minimum dilution ratio of 2, each sample of cell aggregates were mixed at 1:1 volume ratio with E8 media and plated on vitronectin-coated culture vessel. 24 hours later, cell reattachment was observed qualitatively under a Nikon TMS inverted phase contrast microscope. Disaccharides included sucrose, trehalose, maltose, and lactose.
# iPS cell aggregates [2] = test: Cell proliferation of post-thaw culture from 24 to 48 h; format: cell-based, human; settings: 1: no net change in total live cell count in culture
# Description: (§1) Different forms of cellular damage were identified. Low-temperature spectroscopy was conducted as described earlier to characterize the formation of intracellular ice at −50° C. Both pre-freeze and post-thaw, cells were stained for ROS and free radicals using H2DCFDA (ROS Detection Assay Kit, BioVision) at 37° C. for 45 min to characterize oxidative stress by immunofluorescence and microplate assay. Thawed cells were also stained for caspase enzyme activity using FAM-FLICA (from ImmunoChemistry Technologies, LLC in Bloomington, Minn.) to detect apoptosis. Size of cell aggregates post-thaw was observed visually. Post-thaw cell recovery, reattachment and proliferation were measured as described earlier. Cells cryopreserved using 10% DMSO in PBS++ was used as a control. Brightfield and fluorescent images were acquired using a Carl Zeiss Axioskop 50 with a 10× air objective (NA 0.30, Plan-Neofluar, Carl Zeiss) or a 20× air objective (NA 0.50, Plan-Neofluar, Carl Zeiss) and a Spot Insight Firewire 2 Camera. Microplate assay was quantified using a Synergy HT microplate reader (BioTek).
# Different types of additives were tested. P188 5% w/v was added to both the basal solution and the 2× cryopreservation solution to stabilize cell membrane. 2× NEAA was added pre-freeze to the 2× cryopreservation solution to conserve cellular energy. The following molecules were used to target general or specific apoptosis pathways and added at the given working concentration either pre-freeze or post-thaw: 10 μM rho kinase inhibitor (or ROCK inhibitor, Y-27632, […] Technologies), 20 μM pan caspase inhibitor (Z-VAD-FMK, from ApexBio Technology LLC in Houston, Tex.), 1 μg/ml Fas ligand inhibitor (Recombinant Human Fas/TNFRSF6-Fc Chimera from BioLegend in San Diego, Calif.), 100 ng/ml each of TNF-related apoptosis-inducing ligand (TRAIL) inhibitors targeting TRAIL receptor 1 (Recombinant Human TNFRSF10A-Fc Chimera, BioLegend), TRAIL receptor 2 (Recombinant Human TNFRSF10B-Fc Chimera, BioLegend), and TRAIL receptor 4 (Recombinant Human TNFRSF10D-Fc Chimera, BioLegend) respectively.
# iPS cell aggregates [3] = test: Post-thaw cell reattachment (calcein AM, 24 h post-thaw) after controlled-rate freezing, development of buffer and additives; format: cell-based, human; settings: 100%: same as DMSO control; for Post-thaw reattachment rate of cell aggregates buffered in HBSS: HBSS buffer; for Post-thaw reattachment rate of cell aggregates buffered in PBS++: PBS++ buffer
# Description: Cells were dissociated using ReLeSR™ and harvested as aggregates without centrifugation in the basal solution at cell concentration of ˜ 3×10^6/ml. Suspension of cell aggregates was loaded into cryovials (Nunc CryoTube, ThermoFisher Scientific) for 0.5 ml/vial. 2× cryopreservation solution was introduced to the cells dropwise for 0.5 ml/vial. Cells were then incubated at room temperature for exactly 30 min before freezing.
# Cryovials of cells were frozen using a controlled-rate freezer (Kryo 10 Series III from Planer PLC in Middlesex, UK) following the steps listed below using a cooling rate, B, of 1° C./min and a seeding (or ice nucleation) temperature, TNUC, of −4° C.: • 1. Starting temperature 20° C. • 2. −10° C./min to 0° C. • 3. Hold at 0° C. for 10 min to equilibrate temperature inside and outside cryovials • 4. −1° C./min to −4° C. • 5. Hold at −4° C. for 15 min • 6. Induce ice nucleation when cryovial internal temperature reaches −4° C. towards the end of step 5 • 7. −1° C./min to −60° C. • 8. −10° C./min to −100° C.
# Frozen cryovials were thawed in a 37° C. water bath. The cryovial was submerged below the lid and agitated for 2.5 min.
# E8 media, either with or without apoptosis inhibitors, was added to the thawed suspension of cell aggregates using a flow rate of ˜ 1 ml/min. Dilution factor of 2 was used, meaning each cryovial of cells was used to produce 1 well of a 6-well plate of post-thaw cell culture. Diluted cells were seeded onto a freshly coated culture vessel and placed in 5% CO2 at 37° C. incubator undisturbed for 24 h.
# Ability of cryopreserved cells to re-establish culture after thawing was assessed based on a metric of post-thaw cell reattachment. Thawed cells were plated at a specified split ratio. After 24 h, post-thaw culture was washed and stained for live cells with esterase activity using cell permeant dye calcein AM (ThermoFisher Scientific). Live cells in each sample were quantified using a Synergy HT microplate reader (BioTek) in scan mode based on mean fluorescence intensity. Fluorescence measurement was normalized to controls, which were either fresh cells passaged with the same cell density or cells cryopreserved with the same pre-freeze cell concentration using a DMSO-based control formulation, to determine the value of post-thaw cell reattachment for each sample in arbitrary unit.
# Controlled-rate freezing protocol remained constant with a cooling rate of 1° C./min and an ice nucleation temperature of −4° C.
# as §1
# Different types of additives were tested. P188 5% w/v was added to both the basal solution and the 2× cryopreservation solution to stabilize cell membrane. 2× NEAA was added pre-freeze to the 2× cryopreservation solution to conserve cellular energy. […]
Compound,Conditions and observation: cell reattachment after incubation (iPS cell aggregates [1]),Cell proliferation of culture cryopreserved in HBSS from 24 to 48 h post-thaw (iPS cell aggregates [2]; inhibitors added post-thaw),Post-thaw reattachment rate of cell aggregates buffered in HBSS (iPS cell aggregates [3]; inhibitor added post-thaw) [%],Post-thaw reattachment rate of cell aggregates buffered in PBS++ (iPS cell aggregates [3]; inhibitor added post-thaw) [%],Post-thaw reattachment rate of cell aggregates buffered in PBS++ (iPS cell aggregates [3]; inhibitor added pre-freeze) [%],Cell proliferation of culture cryopreserved in HBSS from 24 to 48 h post-thaw (iPS cell aggregates [2]; inhibitors added pre-freeze),Post-thaw reattachment rate of cell aggregates buffered in HBSS (iPS cell aggregates [3]; inhibitor added pre-freeze) [%]
ethylene glycol,"many colonies, normal morphology",,,,,,
"COC(=O)C[C@H](NC(=O)[C@H](C)NC(=O)[C@@H](NC(=O)OCc1ccccc1)C(C)C)C(=O)CF [Pan caspase, Z-VAD-FMK] (Cbz-Val-Ala-Asp(OMe)-CH2F)",,3.312,100,30,15,,
Fas ligand,,1.749,106,62,45,1.713,76
"C[C@@H](N)[C@H]1CC[C@H](C(=O)Nc2ccncc2)CC1 [Rho kinase, Y-27632]",,,,11,109,0.967,104
